Measured values from patent US20090082395A1, “SOLUBLE EPOXIDE HYDROLASE INHIBITORS” (Arete Therapeutics, Inc., priority 2007, published 2009).

Assays:
[1] = test system: soluble epoxide hydrolase (sEH); test: Fluorescent assay for mouse and human soluble epoxide hydrolase (CMNPC substrate); format: biochemical; details: recombinant sEH, species (mouse or human) not given
Text: Fluorescent Assay for Mouse and Human Soluble Epoxide Hydrolase
Recombinant mouse sEH (MsEH) and human sEH (HsEH) were produced in a baculovirus expression system as previously reported. Grant et al., J. Biol. Chem., 268:17628-17633 (1993); Beetham et al., Arch. Biochem. Biophys., 305:197-201 (1993). The expressed proteins were purified from cell lysate by affinity chromatography. Wixtrom et al., Anal. Biochem., 169:71-80 (1988). Protein concentration was quantified using the Pierce BCA assay using bovine serum albumin as the calibrating standard. The preparations were at least 97% pure as judged by SDS-PAGE and scanning densitometry. They contained no detectable esterase or glutathione transferase activity which can interfere with the assay. The assay was also evaluated with similar results in crude cell lysates or homogenate of tissues.
The IC50s for each inhibitor were according to the following procedure:
Cyano(2-methoxynaphthalen-6-yl)methyl (3-phenyloxiran-2-yl)methyl carbonate (CMNPC; Jones P. D. et. al.; Analytical Biochemistry 2005; 343: pp. 66-75)
Bis/Tris HCl 25 mM pH 7.0 containing 0.1 mg/mL of BSA (buffer A)
CMNPC at 0.25 mM in DMSO.
Mother solution of enzyme in buffer A (Mouse sEH at 6 μg/mL and Human sEH at 5 μg/mL). Inhibitor dissolved in DMSO at the appropriate concentration.
In a black 96 well plate, fill all the wells with 150 μL of buffer A. Add 2 μL of DMSO in well A2 and A3, and then add 2 μL of inhibitor solution in A1 and A4 through A12. Add 150 μL of buffer A in row A, then mix several time and transfer 150 μL to row B. Repeat this operation up to row H. The 150 μL removed from row H go to the trash. Add 20 μL of buffer A in column 1 and 2, then add 20 μL of enzyme solution to column 3 to 12. Incubate the plate for 5 minutes in the plate reader at 30° C. During incubation prepare the working solution of substrate by mixing 3.68 mL of buffer A (4×0.920 mL) with 266 μL (2×133 μL) of substrate solution). At t=0, add 30 μL of working substrate solution with multi-channel pipette labeled “Briggs 303” and start the reading ([S]final: 5 μM). Read with ex: 330 nm (20 nm) and em: 465 nm (20 nm) every 30 second for 10 minutes. The velocities are used to analyze and calculate the IC50s.

% Inh ([1]; compound concentration 2000 nM) [%] | melting point [°C] | % Inh ([1]; compound concentration 50 nM) [%] | % Inh ([1]; compound concentration 500 nM) [%] | Compound
98 | 259 to 263 |  |  | O=C(Nc1ccc(C(F)(F)F)cc1)Nc1ccc2ncccc2c1 [Compound 1, 1-(quinolin-6-yl)-3-(4-(trifluoromethyl)phenyl)urea]
98 |  |  |  | O=C(Nc1ccc2c(c1)OCCO2)NC12CC3CC(CC(C3)C1)C2 [Compound 2, 1-adamantan-1-yl-3-(2,3-dihydrobenzo[b][1,4]dioxin-6-yl)urea]
 | 195 to 200 | 91 |  | O=C(Nc1ccc(C(F)(F)F)cc1)Nc1ccc2c(c1)OC(F)(F)O2 [Compound 3, 1-(2,2-difluorobenzol[d][1,3]dioxol-5-yl)-3-(4-(trifluoromethyl)phenyl)urea]
 | 264 to 268 |  | 91 | O=C(Nc1ccc(Cl)cc1)Nc1ccc2[nH]c(C(F)(F)F)nc2c1 [Compound 4, 1-(4-chlorophenyl)-3-(2-(trifluoromethyl)-1H-benzo[d]imidazol-5-yl)urea]
 |  |  | 89 | O=C(Nc1cccc(C(F)(F)F)c1)Nc1ccc2c(c1)OC(F)(F)O2 [Compound 5, 1-(2,2-difluorobenzo[d][1,3]dioxol-5-yl)-3-(3-(trifluoromethyl)phenyl)urea]
 | 257 to 260 | 89 |  | Cc1cc2cc(NC(=O)Nc3ccc(Cl)cc3)ccc2[nH]1 [Compound 6, 1-(4-chlorophenyl)-3-(2-methyl-1H-indol-5-yl)urea]
 | 231 to 233 | 95 |  | O=C(Nc1ccc(Cl)cc1)Nc1ccc2c(c1)OC(F)(F)O2 [Compound 7, 1-(4-chlorophenyl)-3-(2,2-difluorobenzo[d][1,3]dioxol-5-yl)urea]
 | 252 to 254 | 92 |  | Cn1ncc2cc(NC(=O)Nc3ccc(C(F)(F)F)cc3)ccc21 [Compound 8, 1-(1-methyl-1H-indazol-5-yl)-3-(4-(trifluoromethyl)phenyl)urea]
 | 146 to 152 | 85 |  | Cc1cc2cc(NC(=O)NC34CC5CC(CC(C5)C3)C4)ccc2[nH]1 [Compound 9, 1-adamantan-1-yl-3-(2-methyl-1H-indol-5-yl)urea]
 | 213 to 215 | 99 |  | O=C(Nc1ccc2c(c1)OC(F)(F)O2)NC12CC3CC(CC(C3)C1)C2 [Compound 10, 1-adamantan-1-yl-3-(2,2-difluorobenzo[d][1,3]dioxol-5-yl)urea]
 | 240 to 243 | 98 |  | Cc1nc2cc(NC(=O)Nc3ccc(C(F)(F)F)cc3)ccc2o1 [Compound 11, 1-(2-methylbenzo[d]oxazol-5-yl)-3-(4-(trifluoromethyl)phenyl)urea]
 | 184 to 186 |  | 93 | Cc1nc2cc(NC(=O)Nc3cccc(C(F)(F)F)c3)ccc2o1 [Compound 12, 1-(2-methylbenzo[d]oxazol-5-yl)-3-(3-(trifluoromethyl)phenyl)urea]
 | 209 to 214 | 92 |  | Cc1nc2cc(NC(=O)NC34CC5CC(CC(C5)C3)C4)ccc2s1 [Compound 13, 1-adamantan-1-yl-3-(2-methylbenzo[d]thiazol-5-yl)urea]
 | 223 to 228 | 80 |  | O=C(Nc1ccc(C(F)(F)F)cc1)Nc1ccc2[nH]c(C(F)(F)F)nc2c1 [Compound 14, 1-(2-(trifluoromethyl)-1H-benzo[d]imidazol-5-yl)-3-(4-(trifluoromethyl)phenyl)urea]
 | 189 to 192 |  | 93 | O=C(Nc1ccc2[nH]c(C(F)(F)F)nc2c1)NC12CC3CC(CC(C3)C1)C2 [Compound 15, 1-adamantan-1-yl-3-(2-(trifluoromethyl)-1H-benzo[d]imidazol-5-yl)urea]
 | 213 to 215 |  | 85 | O=C(Nc1cccc(C(F)(F)F)c1)Nc1ccc2nc(C(F)(F)F)[nH]c2c1 [Compound 16, 1-(2-(trifluoromethyl)-1H-benzo[d]imidazol-5-yl)-3-(3-(trifluoromethyl)phenyl)urea]
 | 279 to 282 | 86 |  | O=C(Nc1cccc(C(F)(F)F)c1)Nc1ccc2c(c1)COC2=O [Compound 17, 1-(1-oxo-1,3-dihydroisobenzofuran-5-yl)-3-(3-(trifluoromethyl)phenyl)urea]
 |  | 87 |  | O=C(Nc1ccc(C(F)(F)F)cc1)Nc1ccc2c(c1)COC2=O [Compound 18, 1-(1-oxo-1,3-dihydroisobenzofuran-5-yl)-3-(4-(trifluoromethyl)phenyl)urea]
